# Results taken from patent US5364871A, “New thiazole derivatives, and pharmaceutical composition comprising the same” (Fujisawa Pharmaceutical Co., Ltd., priority 1989, dated 1994).
# Key:
# Gastric secretion [1] = experiment: Test A: Gastric secretion in Heidenhain pouch dogs; format: in vivo; details: total acid output, tetragastrin (10 μg/kg/hr) stimulated; 3.2 mg/kg orally; Beagle dogs
# Experimental: Test A (Gastric secretion in Heidenhain pouch dogs):
# Beagle dogs, weighing about 8-13 kg, were used for the study on gastric secretion. The animals were surgically provided with a vagally denervated Heidenhain pouch. One month or more later, the dogs were fasted overnight. Gastric secretion was stimulated by an intravenous infusion of tetragastrin (10 μg/kg/hr). Gastric samples were collected at 15 min intervals. After its volume was almost constant, test compound (3.2 mg/kg) suspended in 0.1% methyl cellulose solution was administered orally. Acid concentration was determined by titrating an aliquot to pH 7.0 with 0.1N sodium hydroxide solution using automatic titration (Hiranuma RAT-11 Type). Total acid output was calculated by multiplying total volume of gastric samples by acid concentration, and percentage change of total acid output was calculated by comparing with predosing value of test compound.
# Gastric secretion [2] = experiment: Test C: Gastric secretion from lumen perfused stomach in anesthetized rats; format: in vivo, Male Sprague-Dawley rats; details: maximal inhibition of acid output, histamine (3 mg/kg/hr) stimulated, 1 mg/kg intravenously
# Experimental: Test C (Gastric secretion from lumen perfused stomach
# Male Sprague-Dawley rats weighing about 250 g were used. Rats were deprived of food but allowed free access to water for 24 hours. The animals were anesthetized with 1.25 g/kg urethane intraperitoneally. The abdomen was opened and the gastric lumen was perfured with saline throughout the experiment. The perfusate was titrated by an antotitrator with 25 mM sodium hydroxide as a titrant. Gastric secretion was stimulated by intravenous infusion with histamine (3 mg/kg/hr). After reaching plateau, test compound (1 mg/kg) was given intravenously. Drug effect was expressed as maximal inhibition by acid output.
# stress ulcer = experiment: Test B: Inhibition of stress ulcer; format: in vivo, male Sprague-Dawley rats; details: area of ulcers, restraint and water immersion 7 hours; 32 mg/kg orally; rats
# Experimental: Test B (Inhibition of stress ulcer):
# Five male Sprague-Dawley rats, aged 7 weeks and weighing about 200 g were used per group for the study on stress ulcer after the fast for 24 hours. Each animal was immobilized in a restrain cage and immersed to a level of the xiphoid in a water bath kept 22° C. Each of the test compounds (32 mg/kg) suspended in 0.1% methylcellulose solution was administered orally just before the immobilization. Seven hours later, the animals were sacrificed and their stomachs were removed. The stomach was then fixed with 2% formalin. The area of ulcers was measured for each animal, and percentage of inhibition was calculated by comparing the mean area of ulcers (mm^2) in the test animals with that in the control animals.
# HCl-aspirin ulcer = experiment: Test E: Inhibition of HCl-aspirin ulcer; format: in vivo, male Sprague-Dawley rats; details: length of ulcers; 32 mg/kg orally 30 minutes before aspirin (200 mg/kg in 0.2N HCl); rats
# Experimental: Test E (Inhibition of HCl-aspirin ulcer):
# Seven male Sprague-Dawley rats, aged 6 weeks and weighing about 200 g were used per group for the study on HCl-aspirin ulcer after the fast for 24 hours. Each of the test compounds (32 mg/kg) suspended in 0.1% methylcellulose solution was administered orally 30 minutes before aspirin administration. Aspirin, suspended in 0.1% methylcellulose solution containing 0.2N HCl, was administered orally at a dose of 200 mg/kg/10 ml. One hour later, the animals were sacrificed and their stomachs were removed. The stomach was then fixed with 2% formalin. The length of ulcers was measured for each animal, and percentage of inhibition was calculated by comparing the mean length of ulcers (mm) in the test animals with that in the control animals.
# [3] = system: Helicobacter pyloridis 8008; experiment: Test D: Anti-microbial activity (agar dilution method); format: cell-based; details: 72 h, Brucella agar plus 5% lysed horse blood, 37° C., 3 days, 10% CO2
# Experimental: Test D (Anti-microbial activity):
# In vitro antimicrobial activity was determined by the agar dilution method. Test strain was precultured in Brucella broth containing 5% horse serum at 37° C. for 3 days 10^4 cfu were inoculated with a multipoint replicater onto Brucella agar plus 5% lysed horse blood plate containing serial 2-fold dilutions of each drug at 37° C. for 3 days. Incubation was carried out in an atmosphere of 10% CO2. MIC was read after incubation as the lowest drug concentration that inhibited macroscopic colonial growth.
structure (smiles),measurement,setting,value
CC(=O)NCc1cccc(-c2csc(N=C(N)N)n2)n1 [(a)],Inhibition (%),Gastric secretion [1],95%
NC(=O)NCc1cccc(-c2csc(N=C(N)N)n2)n1 [(b)],Inhibition (%),Gastric secretion [2],98%
NC(=O)NCc1nc(-c2csc(N=C(N)N)n2)cs1 [(c)],Inhibition (%),Gastric secretion [2],97%
CCOC(=O)c1nc(-c2csc(N=C(N)N)n2)cs1 [(d)],Inhibition (%),stress ulcer,93.9%
CCCCNC(N)=Nc1nc(-c2cccc(CNC(C)=O)n2)cs1 [(e)],Inhibition (%),HCl-aspirin ulcer,98.1%
same,MIC,[3],0.78 µg/mL
